Patent publication EP0586960B1, “Xanthone derivatives, their preparation and use” (INVERNI DELLA BEFFA S.P.A., priority 1992, dated 1994)
Read-outs that look alike come from different tables or passages of the source.

Tests used:
hen osteoclasts = assay: Bone resorption by hen osteoclast cultures with rat bone particles pre-labelled with tritiated proline; type: cell-based; details: for inhibition at 10 µg/mL / inhibition at 25 µg/mL: Osteoclast, read-out: Inhibition % vs. controls
Procedure: The activity of the new xanthones has been evaluated in vitro and in vivo. The effect on the bone resorption has been studied in vitro according to Zambonin-Zallone et al. Anatomy Embriology, 165, 405, 1982). The medullary bone, deriving from tibia and femur of hens fed with hypocalcic diet for 7 days was washed with MEM buffer, modified according to Joklik, at 4°C and filtered through a nylon filter with pore diameters of 112 microns. The obtained cell suspension was centrifuged at 1800 rpm for 5 minutes. The surnatant was discarded and the pellet treated with a 0.2% NaCl solution for 30 seconds to eliminate most of the present red blood cells. After restoration of the physiological osmolarity by means of 1.6% NaCl, the sample was centrifuged at 1800 rpm for 5 min. The obtained pellet, suspended again in the culture medium, was layered on 75% foetal calf serum in Joklik MEM for 45 min, so as to obtain a cell suspension enriched in osteoclasts. The fibroblasts were then filtered off by means of two filtrations on 112 µn nylon filters.
The so obtained cells were cultivated in a nucleotide-free medium, in the presence of 3 µg/ml of cytosine-1-D-β-arabinofuranoside to block the mitosis of proliferating cells. The culture medium contained 100 µg/ml streptomycin, 100 U.I./ml penicillin and 10% fetal calf serum. The cultures were incubated in humid atmosphere saturated with 5% CO₂ at 37°C and washed after 24 and 48 hours to remove non-adhering medullary cells.
The bone resorption was evaluated using the so prepared osteoclasts cultures cultured in the presence of rat bone particles, pre-labelled in vivo with trititated proline. During the resorption process, the collagen was degraded into fragments containing tritiated proline which was released in the culture medium; the resorption was calculated by measuring the radioactivity present in the medium after 24 and 48 hours of treatment.
Simultaneously to each experiment, cell-free samples have also been prepared containing only bone fragments labelled in the culture medium to measure the aspecific release of radioactivity from the bone. This value was subtracted as background from the corresponding experimental value.
The compounds under examination were added to the culture medium at the concentrations of 10 and 25 µg/ml dissolved in DMSO. The inhibiting effect on the bone resorption of osteoclast of compound I (R = iPr, R₁ = OiPr), as an example, is reported on Table 1.
The significance was evaluated by the Student's t test versus the group treated with the solvent alone (control).

[1] = test system: suckling rats under hypocalcic diet; assay: Antiosteoporotic activity in suckling rats under hypocalcic diet (femur compacta thickness by microradiography); type: in vivo, Wistar rats; details: 250 mg/kg/os
Procedure: In vivo, the antiosteoporotic activity of the compound I (R = iPr, R₁ = OiPr) administered by the oral route, was evaluated on suckling rats under hypocalcic diet according to the method, slightly modified, disclosed by Lozupone et al., Bone, 9; 215, 1988). Female Wistar rats were allowed to delivery spontaneously.
The offsprings were pooled, weighed and re-distributed so as to obtain nests similar in weight and number.
The mothers during the suckling period were fed with an hypocalcic diet (Altromin DP 1031) and divided in two groups.
One group was treated orally with compound I (R = iPr, R₁ = OiPr) suspended in Methocel 0.5% at the dose of 250 mg/kg, whereas the second was treated with the vehicle alone (control group). The animals were sacrificed after 10 days from the start of milking.
The femur was taken from each animal and fixed, included in methacrylate and transversally cut. Two sections taken at the distal methaphysis and one from the medial methaphysis were microradiographed so as to measure the thickness of the compacta.

[2] = Acute toxicity in the rat after oral and intraperitoneal administration; parameters: species or system Sprague-Dawley rats; details: in vivo, 14 days observation, read-out: LD₅₀
Procedure: The acute toxicity of the compound I (R = iPr; R₁ = OiPr) was evaluated in the rat after oral and intraperitoneal administration.
Sprague-Dawley rats of both sexes (5M + 5F) were used for each group. […] The compound has an LD₅₀ > 4000 mg/kg (LD₀) after oral administration and an LD₅₀ > 1000 mg/kg (LD₂₀) by intraperitoneal route.

[3] = change versus control group (Methocel 0.5%)
[4] = change versus control group (Methocel 0.5%); R₁ = OiPr)
[5] = femur, sacrificed after 10 days, n = 3, p < 0.05

CC(C)Oc1ccc2c(=O)c3ccc(OC(C)C)cc3oc2c1 [I (R=iPr; R₁=OiPr), 3,6-Di(isopropoxy)xanthone]
Bone Res. (hen osteoclasts; Conc. 10 µg/ml, 24h, n = 4): 32.1 ± 3.6 µg
Bone Res. (hen osteoclasts; Conc. 10 µg/ml, 48h, n = 4): 50.2 ± 6.3 µg
Bone Res. (hen osteoclasts; Conc. 25 µg/ml, 24h, n = 4, p < 0.01): 16.0 ± 1.0 µg
Bone Res. (hen osteoclasts; Conc. 25 µg/ml, 48h, n = 4, p < 0.01): 21.0 ± 1.0 µg
inhibition at 10 µg/mL (hen osteoclasts; Conc. 10 µg/ml, 24h): 27.5%
inhibition at 10 µg/mL (hen osteoclasts; Conc. 10 µg/ml, 48h): 30.9%
inhibition at 25 µg/mL (hen osteoclasts; Conc. 25 µg/ml, 24h): 63.8%
inhibition at 25 µg/mL (hen osteoclasts; Conc. 25 µg/ml, 48h): 71.1%
activity on bone resorption (hen osteoclasts; at the concentrations of 10 and 25 µg/ml): dose dependent activity
bone resorption inhibition in comparison to unexposed controls (hen osteoclasts; both at 24 and at 48 hours, concentration not stated in the sentence (10 and 25 µg/ml tested)): higher than 60%
Compacta thinkness Diaphysis % [1, 3]: +29%
Compacta thinkness Methaphysis % [1, 3]: +29%
Compacta thinkness Diaphysis % [1, 4]: 29%
Compacta thinkness Methaphysis % [1, 4]: 29%
Compacta thinkness Diaphysis mm ± S.D. [1, 5]: 0.71±0.03 mm
Compacta thinkness Methaphysis mm ± S.D. [1, 5]: 0.40±0.12 mm
LD50 at 336 h ([2]; ip, intraperitoneal route, printed with (LD₂₀)): > 1000 mg/kg
LD50 at 336 h ([2]; oral administration, printed with (LD₀)): > 4000 mg/kg
